This note sets out measurements from patent US20080221548A1, “Eradication of Pigmentation and Scar Tissue” (priority 2005, published 2008).

Each structure is given as a SMILES string.

Assay [1] can be described thus: Experiment 1: removal of tattoo pigmentation with different solutions while puncturing the skin. The class given is in vivo, pig. The procedure:
A number of tattoos were applied to the skin of a pig. Each of the tattoos was a square having dimensions approximately 1 cm×1 cm filled with a solid blue-grey color. […] FIG. 3 is a reproduction of a photograph taken 14 days after four of these tattooed areas were treated according to the method of the invention using different types of solution. Square 1 was treated using distilled water and essentially no color reduction was observed. Square 2 was treated using a 2% aqueous solution of salicylic acid. […] Square 3 was treated using a solution containing 17% EDTA.

Assay [2] is described as follows: Experiment 2: treatment of tattooed squares by skin puncturing with salicylic acid rinse. Particulars: 5% aqueous solution of salicylic acid, 10 cc/cm^2, three minutes puncturing, five squares; eighteen days later. The format is in vivo, pig. How it is done: A number of tattoos were applied to the skin of a pig. Each of the tattoos was a square having dimensions approximately 1 cm×1 cm filled with a solid blue-grey color. Two months after the tattoos were applied each of the five squares labeled 1 to 5 on the photograph shown in FIG. 4A was treated according to the method of the invention. The treatment for each square consisted of repeatedly puncturing the skin with the device described hereinabove for three minutes. As the machine was operated, the needles and skin surface were cyclically rinsed with a 5% aqueous solution of salicylic acid. A total of 10 cc of solution was used for each square (i.e. 10 cc/cm^2). Following this initial treatment no further treatment was applied to these five locations.

Assay [3] in a line: Experiment 3: treatment of a pigmented area of skin surrounding a scab by skin puncturing with salicylic acid rinse. The format is in vivo. Particulars: 5% aqueous solution of salicylic acid, ~10 cc/cm^2, ten minutes puncturing; fourteen days after treatment. The procedure: In FIG. 5A is shown a photograph of an area of skin on which there is a reddish-purple pigmented area surrounding brown colored scab. The pigmented area surrounding the scab was treated using the method described above by repeatedly puncturing the skin for ten minutes. During the treatment 10 cc of a 5% aqueous solution of salicylic acid (˜10 cc/cm^2) was used to clean the needles and surface of the skin. A dry bandage was placed over the treated area for a few days to keep the site clean, but no medication was applied. After this the skin was left unattended. […] Although embodiments of the invention have been described by way of illustration, it will be understood that the invention may be carried out with many variations, modifications, and adaptations, without departing from its spirit or exceeding the scope of the claims.

For the molecule `O=C(O)CN(CCN(CC(=O)O)CC(=O)O)CC(=O)O` [EDTA], the scar after treatment result in assay [1] (solution containing 17% EDTA, square 3) is “did not vanish”. Also, the color reduction in assay [1] (solution containing 17% EDTA, tattoo square 3, 14 days after treatment) was 60%.
As for `OO` [H2O2], the reduction in color in assay [1] (H2O2, tattoo square 4, 14 days after treatment) is recorded as 40-60%.
With `O=C(O)c1ccccc1O` [salicylic acid], the “tattoo color after treatment” value in assay [2] is recorded as “all of the original blue-grey color has disappeared”. In assay [3], the “color of the pigmented area after treatment” value is recorded as “changed to a color slightly greyer than the natural skin color” and the “scar tissue after treatment” value is reported as “gone”. The color reduction entry in assay [1] (2% aqueous solution of salicylic acid, 1 cm x 1 cm blue-grey tattoo square 2, 14 days after treatment plus a few days) is “approximately 90%”. Also, the scar after treatment entry in assay [1] (2% aqueous solution of salicylic acid, square 2, a few days after the 14-day photograph) is “vanished leaving no trace”.
